Reference: patent US7632783B2 (priority 2004, dated 2009)

Test system: rice blast (Pyricularia oryzae)
Assay type: in vivo
Details: potted rice (variety Karakaze), spraying liquid 300 ppm after spore inoculation, observed 7 days after inoculation, levels 0 to 3

Compound | degree of disease onset
CC(C)CC1(C)Cc2ccccc2C(c2cnc3ccccc3c2)=N1 (stereo not shown) [Example 60, 3-(3-isobutyl-3-methyl-3,4-dihydroisoquinolin-1-yl)quinoline] | 0
5-fluoro-3,3,4,4-tetramethyl-8b-(1-oxidequinoline-3-yl)-4,8b-dihydro-3H-oxazileno[3,2-a]isoquinoline [Example 198] | 0
FC(F)(F)C1(c2ccccc2)Cc2ccccc2C(c2cnc3ccccc3c2)=N1 (stereo not shown) [Example 74, 3-(3-trifluoromethyl-3-phenyl-3,4-dihydroisoquinolin-1-yl)quinoline] | 0
CCC1(C)Cc2ccccc2C(c2cnc3ccccc3c2)=N1 (stereo not shown) [Example 55, 3-(3-ethyl-3-methyl-3,4-dihydroisoquinolin-1-yl)quinoline] | 0
CC1CCC2(Cc3ccccc3C(c3cnc4ccccc4c3)=N2)C1 (stereo not shown) [Example 101, 1′-quinolin-3-yl-4′H-spiro[(3-methylcyclopentane)-1,3′-isoquinoline]] | 0
CC1(C)N=C(c2cnc3ccccc3c2)c2cccc(F)c2C1(C)O (stereo not shown) [Example 181, 3-(5-fluoro-4-hydroxy-3,3,4-trimethyl-3,4-dihydroisoquinolin-1-yl)quinoline] | 0
Cc1cccc2cc(C3=NC(C)(C)Cc4ccccc43)cnc12 [Example 9, 3-(3,3-dimethyl-3,4-dihydroisoquinolin-1-yl)-8-methylquinoline] | 0
CC1(C)N=C(c2cnc3ccccc3c2)c2ccc(F)cc2C1(C)C [Example 150, 3-(6-fluoro-3,3,4,4-tetramethyl-3,4-dihydroisoquinolin-1-yl)quinoline] | 0
CC1(C)Cc2c(cccc2-c2ccsc2)C(c2cnc3ccccc3c2)=N1 [Example 33, 3-[5-(3-thienyl)-3,3-dimethyl-3,4-dihydroisoquinolin-1-yl]quinoline] | 0
c1ccc2c(c1)CC1(CCCC1)N=C2c1cnc2ccccc2c1 [Example 80, 1′-quinolin-3-yl-4′H-spiro[cyclopentane-1,3′-isoquinoline]] | 0
c1ccc2c(c1)C(c1cnc3ccccc3c1)=NCC21CCC1 [Example 171, 1′-quinolin-3-yl-4′H-spiro[cyclobutane-1,4′-isoquinoline]] | 0
CON=C(C)c1cccc2c1CC(C)(C)N=C2c1cnc2ccccc2c1 [Example 36, 1-(3,3-dimethyl-1-quinolin-3-yl-3,4-dihydroisoquinolin-5-yl)ethanone=O-methyloxime] | 0
CC1(C)Cc2c(F)cccc2C(c2cnc3ccccc3c2)=N1.O=C(O)C(=O)O [Example 106, 3-(5-fluoro-3,3-dimethyl-3,4-dihydroisoquinolin-1-yl)quinoline oxalate] | 0
Cc1cccc2c1CC(C)(C)N=C2c1cnc2ccccc2c1 [Example 26, 3-(3,3,5-trimethyl-3,4-dihydroisoquinolin-1-yl)quinoline] | 0
CC1c2ccccc2C(c2cnc3ccccc3c2)=[N+]([O-])C1(C)C (stereo not shown) [Example 206, 3-(3,3,4-trimethyl-2-oxide-3,4-dihydroisoquinolin-1-yl)quinoline] | 0
CCC1(CC)Cc2ccccc2C(c2cnc3ccccc3c2)=N1 [Example 63, 3-(3,3-diethyl-3,4-dihydroisoquinolin-1-yl)quinoline] | 0
Cc1cccc2c1C(C)(C)C(C)(C)N=C2c1cnc2ccccc2c1 [Example 160, 3-(3,3,4,4,5-pentamethyl-3,4-dihydroisoquinolin-1-yl)quinoline] | 0

Compound | degree of disease onset
CC1(C)Cc2c(F)cccc2C(c2cnc3ccccc3c2)=N1.O=[N+]([O-])O [Example 105, 3-(5-fluoro-3,3-dimethyl-3,4-dihydroisoquinolin-1-yl)quinoline nitrate] | 0
CC1(C)c2ccc(F)cc2C(c2cnc3ccccc3c2)=[N+]([O-])C1(C)C [Example 210, 3-(7-fluoro-3,3,4,4-tetramethyl-2-oxide-3,4-dihydroisoquinolin-1-yl)quinoline] | 0
CC1c2ccccc2C(c2cnc3ccccc3c2)=NC1(C)C (stereo not shown) [Example 119, 3-(3,3,4-trimethyl-3,4-dihydroisoquinolin-1-yl)quinoline] | 0
Fc1ccc2c(c1)CC1(CCCC1)N=C2c1cnc2ccccc2c1 [Example 82, 6′-fluoro-1′-quinolin-3-yl-4′H-spiro[cyclopentane-1,3′-isoquinoline]] | 0
CC1(C)Cc2c(F)cccc2C(c2cnc3ccccc3c2)=N1.O=S(=O)(O)O [Example 104, 3-(5-fluoro-3,3-dimethyl-3,4-dihydroisoquinolin-1-yl)quinoline sulfate] | 0
CCCC1(C)Cc2ccccc2C(c2cnc3ccccc3c2)=N1 (stereo not shown) [Example 57, 3-(3-methyl-3-propyl-3,4-dihydroisoquinolin-1-yl)quinoline] | 0
COC1(C)c2c(F)cccc2C(c2cnc3ccccc3c2)=NC1(C)C (stereo not shown) [Example 183, 3-(5-fluoro-4-methoxy-3,3,4-trimethyl-3,4-dihydroisoquinolin-1-yl)quinoline] | 0
CC1(C)Cc2ccccc2C(c2cnc3c(F)cccc3c2)=N1 [Example 7, 3-(3,3-dimethyl-3,4-dihydroisoquinolin-1-yl)-8-fluoroquinoline] | 0
CC1(C)Cc2c(cccc2C(F)F)C(c2cnc3ccccc3c2)=N1 [Example 132, 3-(5-difluoromethyl-3,3-dimethyl-3,4-dihydroisoquinolin-1-yl)quinoline] | 0
CCON=C(C)c1cccc2c1CC(C)(C)N=C2c1cnc2ccccc2c1 [Example 38, 1-(3,3-dimethyl-1-quinolin-3-yl-3,4-dihydroisoquinolin-5-yl)ethanone=O-ethyloxime] | 0
CC1(C)Cc2ccccc2C(c2cnc3ccccc3c2)=N1 [Example 6, 3-(3,3-dimethyl-3,4-dihydroisoquinolin-1-yl)quinoline] | 0
CC1(C)Cc2c(cccc2-c2cccs2)C(c2cnc3ccccc3c2)=N1 [Example 32, 3-[5-(2-thienyl)-3,3-dimethyl-3,4-dihydroisoquinolin-1-yl]quinoline] | 0
Fc1cccc2c1CC1(CCCC1)N=C2c1cnc2ccccc2c1 [Example 81, 5′-fluoro-1′-quinolin-3-yl-4′H-spiro[cyclopentane-1,3′-isoquinoline]] | 0
CON=Cc1cccc2c1CC(C)(C)N=C2c1cnc2ccccc2c1 [Example 117, 1-(3,3-dimethyl-1-quinolin-3-yl-3,4-dihydroisoquinolin-5-yl)methanone=O-methyloxime] | 0
CC1(C)Cc2c(F)cccc2C(c2cnc3ccccc3c2)=[N+]1[O-] [Example 208, 3-(5-fluoro-3,3-dimethyl-2-oxide-3,4-dihydroisoquinolin-1-yl)quinoline] | 0
CC1(C)Cc2cc(F)ccc2C(c2cnc3ccccc3c2)=N1 [Example 16, 3-(6-fluoro-3,3-dimethyl-3,4-dihydroisoquinolin-1-yl)quinoline] | 0
CC(C)C1(C)Cc2ccccc2C(c2cnc3ccccc3c2)=N1 (stereo not shown) [Example 59, 3-(3-isopropyl-3-methyl-3,4-dihydroisoquinolin-1-yl)quinoline] | 0
